Results as given in patent US6599713B1, “Method for quantitating leukocyte count in whole blood sample” (priority 1999, dated 2003).

Test system: white blood cells contained in the whole blood
Assay: Concentration of surfactant and release amount of MPO in whole blood, ELISA (Example 2)
Type: cell-based, human
Details: 60 minutes on ice, mean ± SD of 3
Description: 10 ml of healthy human whole blood was collected and immediately mixed with 10 mg of EDTA-2K (manufactured and sold by Dojin Laboratories, Japan), and the resultant EDTA-containing whole blood sample was subjected to the below-described various measurements within 1 hour from the blood collection.
500 μl of the blood was put in a 2-ml Eppendorf tube, and 500 μl of an aqueous surfactant solution having a surfactant concentration of 0.1, 0.2, 0.4, 0.6, 1, 2, 4, 10 or 20% (w/v) was added to the tube, and the resultant mixture was stirred for 2 seconds by a Vortex mixer. Subsequently, the mixture was allowed to stand for 60 minutes on ice to thereby lyze the white blood cells. […] After the lysis of the white blood cells, 100 μl of the mixture was taken out and added to 900 μl of a PBS solution containing dissolved therein 1% BSA (trade name: “Sigma fraction V”, manufactured and sold under the brand of SIGMA™, U.S.A.). The resultant mixture was stirred by a Vortex mixer, and then 10 μl of the mixture was taken out and diluted 2,000-fold with 1% BSA/PBS solution. The resultant diluted mixture was subjected to a measurement by ELISA.
The outline of the ELISA is as follows. A 5 μg/ml PBS solution of a rabbit anti-human myeloperoxidase antibody (manufactured and sold by Calbiochem-Novabiochem Corporation, U.S.A.)(hereinafter, frequently referred to as “anti-MPO antibody”) was put into the wells of a Nunc Immuno Plate (manufactured and sold by Nalge Nunc International, Denmark) in an amount of 100 μl per well. The solution in each well was sealed and subjected to a reaction for 18 hours at 4° C. thereby immobilizing the primary antibody. The wells were washed with a washing solution (0.05% Tween™ 20/PBS) and then subjected to blocking for 1 hour at room temperature by using 200 μl of a blocking solution (1% BSA/PBS), and then washed twice with the washing solution. Then, the above-obtained diluted mixture (blood sample which had been treated with a surfactant and then diluted) was put in the wells in an amount of 100 μl per well, and subjected to a reaction for 2 hours at room temperature. Then, the wells were washed 3 times with the washing solution, and a 5 μg/ml solution of an anti-MPO antibody labeled with horseradish peroxidase (hereinafter referred to as “HRP”) was put in the wells in an amount of 100 μl per well, and subjected to a reaction for 1 hour at room temperature. As the above-mentioned HRP-labeled anti-MPO antibody, an anti-human MPO antibody (manufactured and sold by Calbiochem-Novabiochem Corporation, U.S.A.) which had been labeled with HRP Grade IV (manufactured and sold under the brand of SIGMA™, U.S.A.) was employed. The labeling was performed by the method described in Analytical Biochemistry, 132, 68-73 (1983). The wells were washed 5 times with the washing solution, and 100 1 μl of a just-prepared TMB solution (manufactured and sold by Kirkegaad & Perry Laboratories, U.S.A.) was added thereto to effect a color reaction. 2 Minutes after the start of the color reaction, 100 μl of a 1 N sulfuric acid solution (manufactured and sold by Nacalai Tesque, Inc., Japan) was added to the wells to thereby terminate the reaction. Then, the absorbance at 450 nm was measured by means of a plate reader (manufactured and sold by Bio-Rad Laboratories, U.S.A.). The measurement was conducted 3 times, and a mean value±standard deviation was obtained.

In the case of “α-[4-(1,1,3,3,-Tetramethylbutyl)phenyl]-ω-hydroxypoly(oxy-1,2-ethanediyl) [Triton ™ X-100]”, the “Release amount of MPO in whole blood” value (concentration of surfactant 0.05 % (w/v)) is reported as 0.104 ± 0.005 Abs. 450 nm, the “Release amount of MPO in whole blood” value (concentration of surfactant 0.10 % (w/v)) is reported as 0.161 ± 0.009 Abs. 450 nm and the “Release amount of MPO in whole blood” value (concentration of surfactant 0.20 % (w/v)) is reported as 0.202 ± 0.006 Abs. 450 nm. For the same substance, the “Release amount of MPO in whole blood” value (concentration of surfactant 0.30 % (w/v)) was 0.228 ± 0.009 Abs. 450 nm, the “Release amount of MPO in whole blood” value (concentration of surfactant 0.50 % (w/v)) was 0.262 ± 0.005 Abs. 450 nm and the “Release amount of MPO in whole blood” value (concentration of surfactant 1.00 % (w/v)) was 0.245 ± 0.011 Abs. 450 nm. For the same substance, the “Release amount of MPO in whole blood” value (concentration of surfactant 2.00 % (w/v)) was 0.216 ± 0.004 Abs. 450 nm, the “Release amount of MPO in whole blood” value (concentration of surfactant 5.00 % (w/v)) was 0.228 ± 0.007 Abs. 450 nm and the “Release amount of MPO in whole blood” value (concentration of surfactant 10.00 % (w/v)) was 0.227 ± 0.007 Abs. 450 nm.
